The values that follow come from patent US20030069200A1, “Use of glucosylceramide synthesis inhibitors in brain cancertherapy” (priority 2000, published 2003).

The structures appear in SMILES notation.

One data set has as its system neuroblastoma cells. To be noted: in vitro, cited from earlier work.
For data set [1], the system named is CT-2A tumour. Kind of data set: Subcutaneous CT-2A tumour growth in C57BL/6 mice. It is filed as in vivo, mouse. Conditions: NB-DNJ 2400 mg/kg body wt/day in diet, nine days. The procedure: (§1) CT-2A and EPEN tumours were grown subcutaneously in the flanks of six-week old syngeneic C57BL/6 mice. The treated mice were maintained on a powdered mouse chow diet (Prolab, Agway) that contained NB-DNJ (2400 mg/kg body weight/day). The control mice received only the powdered mouse chow. Tumours were enzymatically dissociated as described in Ecsedy et al, J. Lipid Res., 39: 2218-2227, 1998 and approximately 5×10^6 cells from each tumour were inoculated subcutaneously into the flanks of the host mice. For the CT-2A-bearing mice, drug treatment was started six days post-tumour cell inoculation and was continued for a total of nine days. For the EPEN-bearing mice, drug treatment was started eleven days post-tumour inoculation and was continued for a total of ten days. This was done because the EPEN tumour grows more slowly than the CT-2A tumour (Cotterchio et al. 1993. Mol. Chem. Neuropathol. 20:163-172). The method of Looney was used to determine tumour growth rates (volume increase/day) as previously described (Cotterchio et al. 1993. Mol. Chem. Neuropathol. 20:163-172). The results are shown in FIGS. 3A and 3B where values are expressed as means±SEM except for the control EPEN, which is the mean of two independent samples.

For data set [2], the system named is CT-2A tumour. Kind of data set: Ganglioside neuraminic acid content of the CT-2A mouse brain tumour (Table 1). It is filed as in vivo. To be noted: treated mice, mean of N=2. The procedure: (§2) CT-2A tumour tissue was minced and tissue pieces (about 1 mm^3) were implanted into the cerebral cortex of C57BL/6J mice using a trocar as described previously (Seyfried et al. 1987. Cancer Res. 47:3538-3542). The NB-DNJ diet as in Example 2. Control mice received only the powdered mouse chow. Tumours were excised from surrounding brain tissue, frozen, and lyophilized to remove water. Gangliosides were isolated and purified and content expressed as μg sialic acid/100 mg dry weight, as determined using the resorcinol reagent, as previously described (Seyfried et al. 1978. J. Neurochem. 31:21-27).
In addition, NB-DNJ reduced ganglioside content in the CT-2A mouse brain tumour grown subcutaneously (See FIG. 4B and Table 1 below).

The subject of another data set is EPEN tumour. Kind of data set: Subcutaneous EPEN tumour growth in C57BL/6 mice. In kind it is in vivo, mouse. To be noted: NB-DNJ 2400 mg/kg body wt/day in diet, ten days. The protocol: as §1
Another data set has as its system EPEN cells. Kind of data set: Growth of cultured EPEN brain tumour cells (Coulter counter cell counts). In kind it is cell-based. Conditions: NB-DNJ 200 μM. The protocol: (§3) Approximately 0.5×10^4 cells for CT-2A and 1×10^4 cells for EPEN were seeded in wells of a 24 well plate and cultured for 24 hours in DMEM supplemented with 10% FBS. The exact cellular origin of the CT-2A and EPEN tumours is not known, but Dr. Allan Yates, Chief of Neuropathology at Ohio State University classified the tumours as poorly differentiated anaplastic astrocytomas (see Seyfried et al Mol. Chem. Neuropathol. 17: 147-167, 1992).
(§4) Cells were cultured for a further 7 days in the same medium for control cells or in the presence of NB-DNJ (200 μM) for treated cells. Cells were counted on days 2, 4, 6 and 8 using a Coulter counter and the results are shown in FIGS. 2A and 2B where values are expressed as means±SEM (N=3).

Data set [3] deals with CT-2A tumour. Kind of data set: Intra-cranial CT-2A tumour growth and ganglioside content in C57BL/6J mice. In kind it is in vivo, mouse. The protocol:
as §2

The test system of the next data set is CT-2A cells. The data set can be described thus: Growth of cultured CT-2A brain tumour cells (Coulter counter cell counts). Conditions: NB-DNJ 200 μM. It is filed as cell-based. The procedure:
as §3, §4

Setting [4] is: intra-cranial CT-2A tumours, NB-DNJ diet.

`CCCCCCCCCC(=O)N[C@H](CN1CCOCC1)[C@H](O)c1ccccc1` [D-PDMP, D-threo-1-phenyl-2-decanoylamino-3-morpholino-1-propanol]: the “ganglioside shedding by neuroblastoma tumours” value with neuroblastoma cells (Li et al 1996) is recorded as “reduces ganglioside shedding”. Also, in the data set on neuroblastoma cells (Uemura et al 1990), the “neurite outgrowth by neuroblastoma cells” value is recorded as “inhibit neurite outgrowth”.

For the molecule `CCCCN1C[C@H](O)[C@@H](O)[C@H](O)[C@H]1CO` [NB-DNJ, N-butyldeoxynojirimycin], the “reduction of tumour growth rate compared to untreated controls” value in the data set on CT-2A tumour [1] is listed as 68%. Moreover, in the data set with CT-2A tumour [2], the “Ganglioside Neuraminic Acid Content, NeuAc” value is 21.8 μg/100 mg dry wt; the “Ganglioside Neuraminic Acid Content, NeuGc” value was found to be 5.6 μg/100 mg dry wt; the “Ganglioside Neuraminic Acid Content, Total” value is given as 27.1 μg/100 mg dry wt. In the data set with EPEN tumour, the “reduction of tumour growth rate compared to untreated controls” value came to 76%. Also, the “percentage of dead cells vs control (trypan blue exclusion)” value in the data set on EPEN cells (EPEN culture) is listed as “did not differ significantly”. In addition, in the data set with EPEN cells (after 8 days), the “growth inhibition of cultured EPEN tumour cells” value is reported as “about 50%”. In addition, the “intra-cranial growth of the CT-2A tumour” value with CT-2A tumour [3] (NB-DNJ dietary treatment) is reported as “significantly reduced”. For the same molecule, the “blood brain barrier penetration” value in the data set with CT-2A tumour [3] (inferred from the effect on intra-cranial tumours, dietary treatment) is “can penetrate the blood brain barrier”. For the same molecule, in the data set with CT-2A tumour [3] (setting [4]), the “reduction in ganglioside concentration” value worked out at 53% and the “reduction in tumour dry weight” value came out at 55%. The “percentage of dead cells vs control (trypan blue exclusion)” value with CT-2A cells (CT-2A culture) is “did not differ significantly”. Moreover, the “growth inhibition of cultured CT-2A tumour cells” value in the data set with CT-2A cells (after 8 days) is “about 50%”.
